Values quoted from earlier work as cited in patent US6447793B2, “Water soluble, broad spectrum preservative system” (The Collaborative Group, Ltd., priority 1998, dated 2002).

Legend:
Conditions in all cases: pH of 4.5 or below
most bacterial = tested on: most bacterial
yeast = tested on: yeast
mold = tested on: mold

For `C/C=C/C=C/C(=O)O` [sorbic acid, Sorbic acid], the “activity against most bacterial” value (most bacterial) is listed as “poor”, the activity against yeast (yeast) is listed as “fair” and the activity against mold (mold) is listed as “very active”.
